Data published in patent publication US20110112151A1, “COMPOUND CAPABLE OF INHIBITING 11-BETA HYDROXYSTERIOD DEHYDROGENASE” (priority 2008, published 2011).

Key:
11β-HSD1 = biological target: T1, 11β-HSD1 (Homo sapiens, UniProt P28845); assay: 11β-HSD1 HEK assay (cell based assay, SPA); conditions: HEK293; at 1 μM; whole HEK 293 cells stably transfected with the HSD11B1 gene, 3H-cortisone substrate; read-out: Activity (inhibition of 11β-HSD1)
T1 construct: expressed in transfected cells; host or cells: HEK 293 (stably transfected, HEK 293/HSD11B1)
Description: 11β-HSD1 HEK Assay Protocol (Cell Based Assay)
11β-HSD1 activity is measured in whole HEK 293 cells stably transfected with the HSD11B1 gene. Cells are incubated in 96-well microplates in the presence of tritiated substrate. Enzyme activity is determined by measuring the amount of tritated product by scintillation proximity assay (SPA). Assay plates contain internal high and low controls to allow calculation of percentage inhibition.
1. […] 2. When the cells are 80% confluent the medium is removed from each well. 100 μl fresh, serum-free, medium containing ^3H-cortisone and test compound in 1% DMSO is added to each well*. Control wells are also dispensed. […] 3. The plate is incubated at 37° C. for the required time period. 4. 50 μl of media is removed from each well and transferred to a microplate containing 100 μl of a pre-incubated mixture of anti-cortisol antibody and SPA bead. The mixture is incubated with gentle shaking until equilibrium is reached, before transferring to a scintillation counter to establish the enzyme activity in each sample.
10 μl of compound is dispensed into each well of a 96-well microplate in 10% DMSO at 100 μM concentration. 90 μl media containing ^3H-cortisone is added to each well. The compound/media/substrate mixture is then transferred to the assay plate containing the cells. […]

T1 sequence (P28845 whole entry): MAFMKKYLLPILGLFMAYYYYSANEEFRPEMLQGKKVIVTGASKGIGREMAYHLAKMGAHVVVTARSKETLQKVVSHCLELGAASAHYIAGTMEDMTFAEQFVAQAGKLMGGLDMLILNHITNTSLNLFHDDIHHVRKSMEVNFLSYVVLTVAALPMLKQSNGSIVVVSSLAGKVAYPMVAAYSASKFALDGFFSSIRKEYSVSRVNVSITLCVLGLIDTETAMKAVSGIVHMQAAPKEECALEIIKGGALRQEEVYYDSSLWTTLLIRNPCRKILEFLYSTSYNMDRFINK

O=C(C[S+]([O-])Cc1ccncc1)C12CC3CC(CC(C3)C1)C2 (stereo not drawn) [Example 84, 1-Adamantan-1-yl-2-(pyridin-4-ylmethanesulfinyl)-ethanone] showed an inhibition at 1 µM (11β-HSD1) greater than 60% and a melting point of 119 to 123 °C.

In the case of Cc1nnc(SCC(=O)C23CC4CC(CC(C4)C2)C3)n1C [Example 87, 1-(Adamantan-1-yl)-2-[(4,5-dimethyl-1,2,4-triazol-3-yl)sulfanyl]ethanone], the inhibition at 1 µM (11β-HSD1) is reported as greater than 60% and the melting point is reported as 113 to 114 °C.

Nc1nnc(SCC(=O)C23CC4CC(CC(C4)C2)C3)s1 [Example 88, 1-(Adamantan-1-yl)-2-[(5-amino-1,3,4-thiadiazol-2-yl)sulfanyl]ethanone] gave an inhibition at 1 µM (11β-HSD1) greater than 60% and a melting point of 198 to 199 °C.

O=C(CSc1n[nH]c(-c2ccccc2)n1)C12CC3CC(CC(C3)C1)C2 [Example 89, 1-(Adamantan-1-yl)-2-[(5-phenyl-1H-1,2,4-triazol-3-yl)sulfanyl]ethanone] gave an inhibition at 1 µM (11β-HSD1) of less than 20% and a melting point of 187 to 188 °C.

With O=C(CSc1n[nH]c(-c2ccco2)n1)C12CC3CC(CC(C3)C1)C2 [Example 90, 1-(Adamantan-1-yl)-2-{[5-(furan-2-yl)-1H-1,2,4-triazol-3-yl]sulfanyl}ethanone] the inhibition at 1 µM (11β-HSD1) was less than 20% and the melting point was 177 to 178 °C.

For CC(=O)Nc1nnc(SCC(=O)C23CC4CC(CC(C4)C2)C3)s1 [Example 91, N-(5-{[2-(Adamantan-1-yl)-2-oxoethyl]sulfanyl}-1,3,4-thiadiazol-2-yl)acetamide], the inhibition at 1 µM (11β-HSD1) was greater than 60% and the melting point was 208 to 210 °C.

For Cn1nnnc1SCC(=O)C12CC3CC(CC(C3)C1)C2 [Example 92, 1-(Adamantan-1-yl)-2-[(1-methyl-1,2,3,4-tetrazol-5-yl)sulfanyl]ethanone], the inhibition at 1 µM (11β-HSD1) was greater than 60% and the melting point was 112 to 113 °C.

Compound CC(=O)Nc1nnc([S+]([O-])CC(=O)C23CC4CC(CC(C4)C2)C3)s1 (stereo not drawn) [Example 94, N-(5-{[2-(Adamantan-1-yl)-2-oxoethane]sulfinyl}-1,3,4-thiadiazol-2-yl)acetamide] has an inhibition at 1 µM (11β-HSD1) greater than 60% and a melting point of 216 to 218 °C.

For O=C(Nc1nnc(SCC(=O)C23CC4CC(CC(C4)C2)C3)s1)C1CC1 [Example 95, N-(5-{[2-(Adamantan-1-yl)-2-oxoethyl]sulfanyl}-1,3,4-thiadiazol-2-yl)cyclopropanecarboxamide], the inhibition at 1 µM (11β-HSD1) was 20 to 60% and the melting point was 218 to 219 °C.

Compound O=C(Nc1nnc([S+]([O-])CC(=O)C23CC4CC(CC(C4)C2)C3)s1)C1CC1 (stereo not drawn) [Example 96, N-(5-{[2-(Adamantan-1-yl)-2-oxoethane]sulfinyl}-1,3,4-thiadiazol-2-yl)cyclopropanecarboxamide] has an inhibition at 1 µM (11β-HSD1) greater than 60% and a melting point of 172.5 to 174 °C.

O=C(Nc1nnc(S(=O)(=O)CC(=O)C23CC4CC(CC(C4)C2)C3)s1)C1CC1 [Example 97, N-(5-{[2-(Adamantan-1-yl)-2-oxoethane]sulfonyl}-1,3,4-thiadiazol-2-yl)cyclopropanecarboxamide] showed an inhibition at 1 µM (11β-HSD1) greater than 60% and a melting point of 209 to 211 °C.

Cn1c(SCC(=O)C23CC4CC(CC(C4)C2)C3)nnc1C1CC1 [Example 101, 1-(Adamantan-1-yl)-2-[(5-cyclopropyl-4-methyl-4H-1,2,4-triazol-3-yl)sulfanyl]ethan-1-one] showed an inhibition at 1 µM (11β-HSD1) greater than 60% and a melting point of 96 to 97.5 °C.

For Cn1c(SCC(=O)C23CC4CC(CC(C4)C2)C3)nnc1-c1cccs1 [Example 102, 1-(Adamantan-1-yl)-2-{[4-methyl-5-(thiophen-2-yl)-4H-1,2,4-triazol-3-yl]sulfanyl}ethan-1-one], the inhibition at 1 µM (11β-HSD1) was greater than 60% and the melting point was 156 to 157 °C.

Work on Cc1nnc(SCC(=O)C23CC4CC(CC(C4)C2)C3)n1C(C)C [Example 103, 1-(Adamantan-1-yl)-2-{[5-methyl-4-(propan-2-yl)-4H-1,2,4-triazol-3-yl]sulfanyl}ethan-1-one] yielded an inhibition at 1 µM (11β-HSD1) greater than 60% and a melting point of 119 to 120.5 °C.

In the case of CN(C)c1nnc(SCC(=O)C23CC4CC(CC(C4)C2)C3)s1 [Example 104, 1-(Adamantan-1-yl)-2-{[5-(dimethylamino)-1,3,4-thiadiazol-2-yl]sulfanyl}ethan-1-one], the inhibition at 1 µM (11β-HSD1) is reported as greater than 60% and the melting point is reported as 150 to 151 °C.

In the case of Cc1nnc(SCC(=O)C23CC4CC(CC(C4)C2)C3)n1Cc1ccc(Cl)cc1 [Example 105, 1-(Adamantan-1-yl)-2-({4-[(4-chlorophenyl)methyl]-5-methyl-4H-1,2,4-triazol-3-yl}sulfanyl)ethan-1-one], the inhibition at 1 µM (11β-HSD1) is reported as 20 to 60% and the melting point is reported as 158 to 159 °C.

Work on CSc1nnc(SCC(=O)C23CC4CC(CC(C4)C2)C3)s1 [Example 106, 1-(Adamantan-1-yl)-2-{[5-(methylsulfanyl)-1,3,4-thiadiazol-2-yl]sulfanyl}ethan-1-one] yielded an inhibition at 1 µM (11β-HSD1) greater than 60% and a melting point of 133.5 to 135 °C.

COCc1nnc(SCC(=O)C23CC4CC(CC(C4)C2)C3)n1C [Example 107, 1-(Adamantan-1-yl)-2-{[5-(methoxymethyl)-4-methyl-4H-1,2,4-triazol-3-yl]sulfanyl}ethan-1-one] showed an inhibition at 1 µM (11β-HSD1) greater than 60% and a melting point of 109 to 111 °C.
